Patent publication EP0007995A1, “Chemotherapeutic preparations and their manufacture” (F. HOFFMANN-LA ROCHE & CO. Aktiengesellschaft, priority 1978, dated 1980)

What was measured:
[1] = tested on: Streptococcus pyogenes β15; assay: In vivo activity in infected mouse; conditions: po; Maus, p.o., gegen Streptococcus pyogenes β15; read-out: CD50 p.o.
[2] = tested on: Pseudomonas aeruginosa BA; assay: In vivo activity in infected mouse; conditions: po; Maus, p.o., gegen Pseudomonas aeruginosa BA; read-out: CD50 p.o.
[3] = tested on: E. coli 1346; assay: In vivo activity in infected mouse; conditions: Escherichia coli, po; Maus, p.o., gegen E. coli 1346; read-out: CD50 p.o.
[4] = tested on: Salmonella typhimurium; assay: In vivo activity in infected mouse; conditions: Salmonella enterica, po; Maus, p.o., gegen Salmonella typhimurium; read-out: CD50 p.o.
[5] = tested on: Proteus mirabilis; assay: In vivo activity in infected mouse; conditions: po; Maus, p.o., gegen Proteus mirabilis; read-out: CD50 p.o.
[6] = Acute toxicity; conditions: mouse, in vivo
[7] = Water solubility; format: physicochemical
Experimental: Wie gefunden wurde, lassen sich mit Fluoramphenicol wässrige Lösungen in Konzentrationen bis zu 0,5 g/10 ml herstellen. Solche Lösungen stellen eine wertvolle parenterale Applikationsform, insbesondere für die intravenöse Injektion und -Infusion dar. Dank seiner guten Wasserlöslichkeit eignet sich Fluoramphenicol auch für die Herstellung von ophthalmologischen Präparaten mit besonders guter Verträglichkeit, insbesondere für die Herstellung von Augentropfen.

[8] = tested on: menschlichen Lymphozyten; conditions: human
[9] = tested on: KB-Zellen
[10] = in vivo
[11] = J. Pharm. Pharmacol. 3 [1951], 143; cited from earlier work
[12] = in vivo; conditions: mouse

O=C(N[C@H](CO)[C@H](O)c1ccc([N+](=O)[O-])cc1)C(Cl)Cl [Chloramphenicol, reference compound]
ED50 [1]: 22 mg/kg | ED50 [2]: 93 mg/kg | ED50 [3]: 6.6 mg/kg | ED50 [4]: 18 mg/kg | ED50 [5]: 5.8 mg/kg | LD50 ([6]; ip): 1000 to 1500 mg/kg | LD50 ([6]; po): 2000 to 3000 mg/kg

O=C(N[C@H](CO)[C@H](O)c1ccc([N+](=O)[O-])cc1)C(F)F [Fluoramphenicol, D-threo-1-(p-Nitrophenyl)-2-difluor-acetamino-l,3-propandiol]
ED50 [1]: 11 mg/kg | ED50 [2]: 33 mg/kg | ED50 [3]: 6.6 mg/kg | ED50 [4]: 19 mg/kg | ED50 [5]: 5.2 mg/kg | wässrige Lösungen in Konzentrationen ([7]; aqueous solution): ≤ 0,5 g/10 ml | Wasserlöslichkeit ([7]; result in words): unerwartet hohe Wasserlöslichkeit | Cytotoxizität gegenüber menschlichen Lymphozyten, mal weniger toxisch als Chloramphenicol [8]: ~3 mal | Cytotoxizität gegenüber KB-Zellen, mal weniger toxisch als Chloramphenicol [9]: 3-5 mal | metabolic stability (concluded from urine recovery) [10]: metabolisch beständig | Serumkonzentrationen ([10]; po): höhere Serumkonzentrationen als Chloramphenicol | Urinkonzentrationen, mal höher als Chloramphenicol ([10]; po): ca. lO | mal langsamer ausgeschieden als Chloramphenicol ([10]; po): 2-3 mal | totale Urin-recovery an aktivem Fluoramphenicol, mal höher als an aktivem Chloramphenicol ([10]; po): ca. lO | biological activity [11]: biologisch unwirksam | LD50 ([12]; ip): 2000 to 3000 mg/kg | LD50 ([12]; po): 3000 to 4000 mg/kg
